target: recombinant human MGAT2 (Homo sapiens (Human), UniProt Q3SYC2); test: Measurement of human MGAT2 inhibitory activity; format: biochemical; conditions: recombinant human MGAT2 membrane fraction (Sf-9); 2-Oleoylglycerol and Oleoyl-CoA substrates; 1 hour at room temperature; Diolein detected by RapidFire Q-TOF MS
From the text: A full-length human MGAT2 gene to which a Flag-tag had been added at the N-terminal was inserted into pFastBac (from Invitrogen). A recombinant baculovirus was produced in accordance with the protocol for a Bac-to-Bac baculovirus expression system (produced by Invitrogen), and Sf-9 cells were infected therewith. The cells were collected and sonicated, and then the membrane fraction was collected through centrifugation.
Solutions of the compounds of the present invention in DMSO were each aliquoted into 0.2-μL portions in a 384-well polystyrene microplate produced by Corning Incorporated, and 5 μL of an enzyme solution prepared with an assay buffer (100 mmol/L phosphate buffer (pH 7.4) containing 2 mmol/L DTT) and 5 μL of a substrate solution (100 mmol/L phosphate buffer (pH 7.4), 30 μmol/L 2-Oleoylglycerol, 10 μmol/L Oleoyl-CoA) were added thereto, and the resultant was stirred and centrifuged, and incubated in a moist chamber at room temperature for 1 hour. […] Diolein as a reaction product (P) of 2-Oleoylglycerol as the substrate and an ammonium adduct ion of the IS were detected, and the peak intensity ratio, P/IS, was calculated from the peak heights to evaluate the inhibitory activity. […] The inhibitory activity was calculated from the formula below with TIBCO Spotfire (produced by TIBCO Software Inc.): Inhibitory activity (%)=[1−{Sample−Control(−)}/{Control(+)−Control(−))}]*100 where Sample indicates a peak intensity ratio: P/IS, when the compound of the present invention was added.

Sequence of recombinant human MGAT2 (Q3SYC2 whole entry): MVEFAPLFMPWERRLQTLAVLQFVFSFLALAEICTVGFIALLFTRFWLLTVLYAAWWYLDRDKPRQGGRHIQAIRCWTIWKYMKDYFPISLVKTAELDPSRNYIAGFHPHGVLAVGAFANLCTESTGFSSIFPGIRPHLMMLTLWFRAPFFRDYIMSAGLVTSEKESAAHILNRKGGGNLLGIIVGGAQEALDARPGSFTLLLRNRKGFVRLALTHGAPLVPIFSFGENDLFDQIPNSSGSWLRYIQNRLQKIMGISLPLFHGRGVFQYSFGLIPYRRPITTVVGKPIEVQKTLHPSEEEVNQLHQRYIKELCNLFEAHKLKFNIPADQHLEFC

Point of comparison: CC(=O)NCC1=C(c2ccc(C(C)=O)cn2)C[C@](c2ccc(OCCCC(F)(F)F)cc2)(C(F)(F)F)NC1=O [Compound I-51], IC50 130 nM. Against it:
- COc1ccc(C2=C(CNC(C)=O)C(=O)N[C@@](c3ccc(OCCCC(F)(F)F)cc3)(C(F)(F)F)C2)nc1 (racemic) [Compound I-11] — within 1.5-fold, 110 nM
- CS(=O)(=O)CC(=O)NCC1=C(c2ccc(C(F)F)cn2)CC(c2cnn(CCCC(F)(F)F)c2)(C(F)(F)F)NC1=O (racemic) [Compound I-110] — within 1.5-fold, 91 nM
- Cc1ccc(C2=C(CNS(C)(=O)=O)C(=O)N[C@@](c3ccc(OCCCC(F)(F)F)cc3)(C(F)(F)F)C2)cc1 [Compound I-1] — 6.2-fold lower, 21 nM
- Cc1ccc(C2=C(CNS(C)(=O)=O)C(=O)N[C@@](c3ccc(OCCCC(F)(F)F)cc3)(C(F)(F)F)C2)nc1 [Compound I-3] — within 1.5-fold, 120 nM
- CC(=O)NCC1=C(c2ccc(C)cn2)C[C@](c2ccc(OCCCC(F)(F)F)cc2)(C(F)(F)F)NC1=O [Compound I-4] — 4.1-fold lower, 32 nM
- Cc1ccc(C2=C(CNS(N)(=O)=O)C(=O)N[C@@](c3ccc(OCCCC(F)(F)F)cc3)(C(F)(F)F)C2)nc1 [Compound I-5] — 1.8-fold higher, 230 nM
- Cc1ccc(C2=C(CNC(N)=O)C(=O)N[C@@](c3ccc(OCCCC(F)(F)F)cc3)(C(F)(F)F)C2)nc1 [Compound I-6] — within 1.5-fold, 120 nM
- COC(=O)NCC1=C(c2ccc(C)cn2)C[C@](c2ccc(OCCCC(F)(F)F)cc2)(C(F)(F)F)NC1=O [Compound I-7] — within 1.5-fold, 150 nM
- Cc1ccc(C2=C(CNC(=O)C3CC3)C(=O)N[C@@](c3ccc(OCCCC(F)(F)F)cc3)(C(F)(F)F)C2)nc1 [Compound I-8] — 10-fold lower, 13 nM
- CC(=O)NCC1=C(c2ccc(CO)cn2)C[C@](c2ccc(OCCCC(F)(F)F)cc2)(C(F)(F)F)NC1=O [Compound I-9] — 4.5-fold lower, 29 nM
- Cc1ccc(C2=C(CNC(=O)CS(C)(=O)=O)C(=O)N[C@@](c3ccc(OCCCC(F)(F)F)cc3)(C(F)(F)F)C2)nc1 [Compound I-10] — lower, < 4.6 nM
- COc1ccc(C2=C(CNC(=O)CS(C)(=O)=O)C(=O)N[C@@](c3ccc(OCCCC(F)(F)F)cc3)(C(F)(F)F)C2)nc1 [Compound I-12] — 52-fold lower, 2.5 nM
- COc1ccc(C2=C(CNC(=O)CC(F)(F)F)C(=O)N[C@@](c3ccc(OCCCC(F)(F)F)cc3)(C(F)(F)F)C2)nc1 [Compound I-13] — 39-fold lower, 3.3 nM
- COc1ccc(C2=C(CNC(=O)C(C)C)C(=O)N[C@@](c3ccc(OCCCC(F)(F)F)cc3)(C(F)(F)F)C2)nc1 [Compound I-14] — 16-fold lower, 8 nM
- COc1ccc(C2=C(CNC(=O)C3CCC3)C(=O)N[C@@](c3ccc(OCCCC(F)(F)F)cc3)(C(F)(F)F)C2)nc1 [Compound I-15] — 13-fold lower, 10 nM
- COc1ccc(C2=C(CNC(=O)CC(C)(C)C)C(=O)N[C@@](c3ccc(OCCCC(F)(F)F)cc3)(C(F)(F)F)C2)nc1 [Compound I-16] — 2.5-fold lower, 52 nM
- COc1ccc(C2=C(CNC(=O)c3ccno3)C(=O)N[C@@](c3ccc(OCCCC(F)(F)F)cc3)(C(F)(F)F)C2)nc1 [Compound I-17] — 17-fold lower, 7.6 nM
- COc1ccc(C2=C(CNS(C)(=O)=O)C(=O)N[C@@](c3ccc(OCCCC(F)(F)F)cc3)(C(F)(F)F)C2)nc1 [Compound I-18] — 2.5-fold higher, 330 nM
- COc1ccc(C2=C(CNS(=O)(=O)CC(F)(F)F)C(=O)N[C@@](c3ccc(OCCCC(F)(F)F)cc3)(C(F)(F)F)C2)nc1 [Compound I-19] — 1.8-fold higher, 240 nM
- COc1ccc(C2=C(CNS(=O)(=O)CC#N)C(=O)N[C@@](c3ccc(OCCCC(F)(F)F)cc3)(C(F)(F)F)C2)nc1 [Compound I-20] — 3.7-fold lower, 35 nM
- COc1ccc(C2=C(CNS(=O)(=O)C3CCOCC3)C(=O)N[C@@](c3ccc(OCCCC(F)(F)F)cc3)(C(F)(F)F)C2)nc1 [Compound I-22] — 1.5-fold higher, 200 nM
- COc1ccc(C2=C(CNS(=O)(=O)c3ccccc3)C(=O)N[C@@](c3ccc(OCCCC(F)(F)F)cc3)(C(F)(F)F)C2)nc1 [Compound I-23] — 5.8-fold higher, 750 nM
- COc1ccc(C2=C(CNC(=O)C3CC(=O)C3)C(=O)N[C@@](c3ccc(OCCCC(F)(F)F)cc3)(C(F)(F)F)C2)nc1 [Compound I-24] — 3.2-fold lower, 40 nM
- Cc1ccc(C2=C(CNC(=O)CC(F)(F)F)C(=O)N[C@@](c3ccc(OCCCC(F)(F)F)cc3)(C(F)(F)F)C2)nc1 [Compound I-26] — 57-fold lower, 2.3 nM
- Cc1ccc(C2=C(CNC(=O)c3ccno3)C(=O)N[C@@](c3ccc(OCCCC(F)(F)F)cc3)(C(F)(F)F)C2)nc1 [Compound I-27] — 59-fold lower, 2.2 nM
- Cc1ccc(C2=C(CNS(=O)(=O)CC#N)C(=O)N[C@@](c3ccc(OCCCC(F)(F)F)cc3)(C(F)(F)F)C2)nc1 [Compound I-28] — within 1.5-fold, 100 nM
- Cc1ccc(C2=C(CNC(=O)C3CS(=O)(=O)C3)C(=O)N[C@@](c3ccc(OCCCC(F)(F)F)cc3)(C(F)(F)F)C2)nc1 [Compound I-29] — 7.2-fold lower, 18 nM
- Cc1ccc(C2=C(CNC(=O)CC#N)C(=O)N[C@@](c3ccc(OCCCC(F)(F)F)cc3)(C(F)(F)F)C2)nc1 [Compound I-30] — 11-fold lower, 12 nM
- Cc1ccc(C2=C(CNC(=O)CO)C(=O)N[C@@](c3ccc(OCCCC(F)(F)F)cc3)(C(F)(F)F)C2)nc1 [Compound I-31] — 1.9-fold lower, 70 nM
- COc1ccc(C2=C(CNC(=O)NC(C)C)C(=O)N[C@@](c3ccc(OCCCC(F)(F)F)cc3)(C(F)(F)F)C2)nc1 [Compound I-32] — within 1.5-fold, 97 nM
- COc1ccc(C2=C(CNC(=O)OC(C)C)C(=O)N[C@@](c3ccc(OCCCC(F)(F)F)cc3)(C(F)(F)F)C2)nc1 [Compound I-33] — 2.6-fold higher, 340 nM
- CC(=O)NCC1=C(c2ccc(C(C)C)cn2)C[C@](c2ccc(OCCCC(F)(F)F)cc2)(C(F)(F)F)NC1=O [Compound I-35] — 7.2-fold lower, 18 nM
- COc1ccc(C2=C(CNC(=O)C3COC3)C(=O)N[C@@](c3ccc(OCCCC(F)(F)F)cc3)(C(F)(F)F)C2)nc1 [Compound I-36] — 2.5-fold lower, 53 nM
- COc1ccc(C2=C(CNC(=O)CC#N)C(=O)N[C@@](c3ccc(OCCCC(F)(F)F)cc3)(C(F)(F)F)C2)nc1 [Compound I-37] — 4.6-fold lower, 28 nM
- COc1ccc(C2=C(CNC(=O)C(C)(C)C#N)C(=O)N[C@@](c3ccc(OCCCC(F)(F)F)cc3)(C(F)(F)F)C2)nc1 [Compound I-38] — 7.6-fold lower, 17 nM
- COc1ccc(C2=C(CNC(=O)C3(C#N)CC3)C(=O)N[C@@](c3ccc(OCCCC(F)(F)F)cc3)(C(F)(F)F)C2)nc1 [Compound I-39] — within 1.5-fold, 91 nM
- COc1ccc(C2=C(CNC(=O)CO)C(=O)N[C@@](c3ccc(OCCCC(F)(F)F)cc3)(C(F)(F)F)C2)nc1 [Compound I-40] — 3-fold lower, 43 nM
- COc1ccc(C2=C(CNC(=O)C(C)(C)O)C(=O)N[C@@](c3ccc(OCCCC(F)(F)F)cc3)(C(F)(F)F)C2)nc1 [Compound I-41] — 1.7-fold lower, 75 nM
- CC(=O)NCC1=C(c2ccc(C(C)(C)O)cn2)C[C@](c2ccc(OCCCC(F)(F)F)cc2)(C(F)(F)F)NC1=O [Compound I-42] — 13-fold lower, 10 nM
- CC(C)c1ccc(C2=C(CNC(=O)CS(C)(=O)=O)C(=O)N[C@@](c3ccc(OCCCC(F)(F)F)cc3)(C(F)(F)F)C2)nc1 [Compound I-43] — lower, < 1 nM
- CC(C)c1ccc(C2=C(CNC(=O)C3CS(=O)(=O)C3)C(=O)N[C@@](c3ccc(OCCCC(F)(F)F)cc3)(C(F)(F)F)C2)nc1 [Compound I-44] — 14-fold lower, 9.2 nM
- CC(C)c1ccc(C2=C(CNC(=O)C(C)(C)C#N)C(=O)N[C@@](c3ccc(OCCCC(F)(F)F)cc3)(C(F)(F)F)C2)nc1 [Compound I-45] — 30-fold lower, 4.4 nM
- COc1ccc(C2=C(CNC(=O)C3CS(=O)(=O)C3)C(=O)N[C@@](c3ccc(OCCCC(F)(F)F)cc3)(C(F)(F)F)C2)nc1 [Compound I-46] — 2.1-fold lower, 62 nM
- CC(C)(O)c1ccc(C2=C(CNC(=O)CS(C)(=O)=O)C(=O)N[C@@](c3ccc(OCCCC(F)(F)F)cc3)(C(F)(F)F)C2)nc1 [Compound I-47] — 180-fold lower, 0.73 nM
- CC(C)(O)c1ccc(C2=C(CNC(=O)C3CS(=O)(=O)C3)C(=O)N[C@@](c3ccc(OCCCC(F)(F)F)cc3)(C(F)(F)F)C2)nc1 [Compound I-48] — 41-fold lower, 3.2 nM
- CC(=O)NCC1=C(c2ccc(Br)cn2)C[C@](c2ccc(OCCCC(F)(F)F)cc2)(C(F)(F)F)NC1=O [Compound I-49] — within 1.5-fold, 140 nM
- CC(C)(C#N)C(=O)NCC1=C(c2ccc(C(C)(C)O)cn2)C[C@](c2ccc(OCCCC(F)(F)F)cc2)(C(F)(F)F)NC1=O [Compound I-52] — 42-fold lower, 3.1 nM
- CC(C)c1ccc(C2=C(CNC(=O)C3COC3)C(=O)N[C@@](c3ccc(OCCCC(F)(F)F)cc3)(C(F)(F)F)C2)nc1 [Compound I-53] — 12-fold lower, 11 nM
- CC(C)c1ccc(C2=C(CNC(=O)CC(=O)OC(C)(C)C)C(=O)N[C@@](c3ccc(OCCCC(F)(F)F)cc3)(C(F)(F)F)C2)nc1 [Compound I-54] — 1.6-fold lower, 82 nM
- CC(C)c1ccc(C2=C(CNC(=O)CC(=O)O)C(=O)N[C@@](c3ccc(OCCCC(F)(F)F)cc3)(C(F)(F)F)C2)nc1 [Compound I-55] — within 1.5-fold, 160 nM
- CC(=O)NCC1=C(c2ccc(OC(F)F)cn2)C[C@](c2ccc(OCCCC(F)(F)F)cc2)(C(F)(F)F)NC1=O [Compound I-56] — 7.6-fold lower, 17 nM
- CS(=O)(=O)CC(=O)NCC1=C(c2ccc(OC(F)F)cn2)C[C@](c2ccc(OCCCC(F)(F)F)cc2)(C(F)(F)F)NC1=O [Compound I-57] — 210-fold lower, 0.62 nM
- CC(=O)NCC1=C(c2ccc(C(F)F)cn2)C[C@](c2ccc(OCCCC(F)(F)F)cc2)(C(F)(F)F)NC1=O [Compound I-58] — 3.8-fold lower, 34 nM
- CS(=O)(=O)CC(=O)NCC1=C(c2ccc(C(F)F)cn2)C[C@](c2ccc(OCCCC(F)(F)F)cc2)(C(F)(F)F)NC1=O [Compound I-59] — 120-fold lower, 1.1 nM
